In PMC6587524 (Journal of Clinical Pharmacology, 2018):
Read-outs that look alike come from different tables or passages of the source. Values belong to the compound of their own block, whether it stands above or below them.

Key:
[1] = assay type: in vivo, healthy female subjects; set-up: AUC0-t, Central Value, Test / AUC0-t, Central Value, Reference / AUCinf, Central Value, Test / AUCinf, Central Value, Reference: unit not given beside the values; conditions: for Bioequivalence in the presence and absence of upadacitinib: 90% CIs of Cmax and AUC ratios within 0.8 to 1.25; for Tmax: median (minimum to maximum); for AUC(0-inf): AUCinf; for half-life: t1/2 (terminal half-life), harmonic mean (pseudo-standard deviation)
[2] = cited from earlier work
[3] = tested on: other JAK isoforms; conditions: relative to JAK1; cited from earlier work
[4] = tested on: cytochrome P450 (CYP) 3A; conditions: coadministration following multiple doses of ketoconazole; cited from earlier work
[5] = Safety assessment during the study; assay type: in vivo, healthy female subjects; conditions: period 2
[6] = tested on: JAK1; conditions: cited from earlier work
[7] = ethinylestradiol/levonorgestrel 0.03/0.15 mg alone, period 1 day 1, N = 22, mean ± SD
[8] = ethinylestradiol/levonorgestrel 0.03/0.15 mg with upadacitinib 30 mg QD, period 2, N = 20, mean ± SD
[9] = ethinylestradiol/levonorgestrel 0.03/0.15 mg with upadacitinib 30 mg QD, period 2, N = 20
[10] = period 1, day 1 (oral contraceptive alone), repeated measures analysis
[11] = period 2, day 12 (with upadacitinib 30 mg QD), repeated measures analysis

effect of upadacitinib on the exposures of ethinylestradiol or levonorgestrel ([1]; upadacitinib 30 mg QD repeated doses): no effect
SMILES: CC[C@@H]1CN(C(=O)NCC(F)(F)F)C[C@@H]1c1cnc2cnc3[nH]ccc3n12 [Upadacitinib]
accumulation upon multiple QD dosing ([2]; extended-release formulation): No significant accumulation | administered dose eliminated in urine and feces as unchanged upadacitinib ([2]; in vivo): > 60% | time to steady state ([2]; multiple QD dosing, extended-release formulation): ≤ 4 days | potency against the other JAK isoforms [3]: less potent | increase in upadacitinib AUC [4]: 75% | increase in upadacitinib Cmax [4]: 70% | relation of treatment-emergent adverse events to upadacitinib [5]: not considered to have a reasonable possibility of being related | JAK1 inhibition [6]: potently inhibits JAK1

Bioequivalence in the presence and absence of upadacitinib [1]: bioequivalent | AUC(0-t) [1, 7]: 43.0 ± 18.4 ng·h/mL | AUCinf [1, 7]: 51.7 ± 22.0 ng·h/mL | Cmax [1, 7]: 3.9 ± 1.4 ng/mL | Tmax ([1]; ethinylestradiol/levonorgestrel 0.03/0.15 mg alone, period 1 day 1, N = 22): 0.8 (0.5–2.0) h | AUC(0-t) [1, 8]: 38.7 ± 12.1 ng·h/mL | AUCinf [1, 8]: 49.5 ± 20.4 ng·h/mL | Cmax [1, 8]: 3.7 ± 1.15 ng/mL | Tmax [1, 9]: 0.8 (0.5–2.0) h | AUC0-t, Central Value, Reference [1, 10]: 39.6 | AUCinf, Central Value, Reference [1, 10]: 47.6 | AUC0-t, Central Value, Test [1, 11]: 36.3 | AUCinf, Central Value, Test [1, 11]: 45.5
SMILES: C#C[C@]1(O)CC[C@H]2[C@@H]3CCC4=CC(=O)CC[C@@H]4[C@H]3CC[C@@]21CC [Levonorgestrel]

Bioequivalence in the presence and absence of upadacitinib [1]: bioequivalent | Tmax [1, 9]: 1.5 (1.0–3.0) h | AUC(0-t) ([1]; female, human, plasma, po, AUC0-t, Central Value, Test, period 2, day 12 (with upadacitinib 30 mg QD), repeated measures analysis): 0.39 ng·h/mL | AUC(0-t) ([1]; female, human, plasma, po, AUC0-t, ethinylestradiol/levonorgestrel 0.03/0.15 mg alone, period 1 day 1, N = 22, mean ± SD): 0.378 ± 0.154 ng·h/mL | AUC(0-t) ([1]; female, human, plasma, po, AUC0-t, ethinylestradiol/levonorgestrel 0.03/0.15 mg with upadacitinib 30 mg QD, period 2, N = 20, mean ± SD): 0.426 ± 0.137 ng·h/mL | AUC(0-inf) ([1]; female, human, plasma, po, Central Value, Test, period 2, day 12 (with upadacitinib 30 mg QD), repeated measures analysis): 0.445 ng·h/mL | AUC(0-inf) ([1]; female, human, plasma, po, ethinylestradiol/levonorgestrel 0.03/0.15 mg alone, period 1 day 1, N = 22, mean ± SD): 0.441 ± 0.193 ng·h/mL | half-life ([1]; female, human, plasma, po, ethinylestradiol/levonorgestrel 0.03/0.15 mg alone, period 1 day 1, N = 22): 420 min | half-life ([1]; female, human, plasma, po, ethinylestradiol/levonorgestrel 0.03/0.15 mg with upadacitinib 30 mg QD, period 2, N = 20): 462 min
SMILES: C#C[C@]1(O)CC[C@H]2[C@@H]3CCc4cc(O)ccc4[C@H]3CC[C@@]21C [Ethinylestradiol]
